These results are taken from PubChem BioAssay AID1259407 (Chemical Carcinogenesis Research Information System (CCRIS), 2018).

Active and inactive are the calls of the source. How the calls were made is not given here.

The data set concerns CCRIS mutagenicity, Ames/micronucleus/aberration tests. Briefly: CCRIS mutagenicity studies.
The mark [1] stands for this setting: Test System: AMES SALMONELLA TYPHIMURIUM, Strain/Indicator: TA98, Metabolic Activation: RAT, LIVER, S-9, AROCLOR 1254, Method: STANDARD PLATE.
[2] abbreviates: Test System: AMES SALMONELLA TYPHIMURIUM, Strain/Indicator: TA100, Metabolic Activation: NONE, Method: STANDARD PLATE.
[3] abbreviates: Test System: AMES SALMONELLA TYPHIMURIUM, Strain/Indicator: TA100, Metabolic Activation: RAT, LIVER, S-9, AROCLOR 1254, Method: STANDARD PLATE.
Setting [4] is: Test System: AMES SALMONELLA TYPHIMURIUM, Strain/Indicator: TA97, Metabolic Activation: NONE, Method: STANDARD PLATE.
Setting [5] is: Test System: AMES SALMONELLA TYPHIMURIUM, Strain/Indicator: TA98, Metabolic Activation: NONE, Method: STANDARD PLATE.

As to `CC(=O)N(CC(O)CO)c1c(I)c(C(=O)NCCO)c(I)c(C(=O)NCC(O)CO)c1I` (stereo not given), the mutagenic call is, setting by setting: (Test System: AMES SALMONELLA TYPHIMURIUM, Strain/Indicator: TA98, Metabolic Activation: NONE) “inactive; negative”; (Test System: AMES SALMONELLA TYPHIMURIUM, Strain/Indicator: TA98, Metabolic Activation: RAT, LIVER, S-9) “inactive; negative”; (Test System: AMES SALMONELLA TYPHIMURIUM, Strain/Indicator: TA100, Metabolic Activation: NONE) “inactive; negative”; (Test System: AMES SALMONELLA TYPHIMURIUM, Strain/Indicator: TA100, Metabolic Activation: RAT, LIVER, S-9) “inactive; negative”; (Test System: AMES SALMONELLA TYPHIMURIUM, Strain/Indicator: TA1535, Metabolic Activation: NONE) “inactive; negative”; (Test System: AMES SALMONELLA TYPHIMURIUM, Strain/Indicator: TA1535, Metabolic Activation: RAT, LIVER, S-9) “inactive; negative”. Besides, the mutagenic call reads like this: (Test System: AMES SALMONELLA TYPHIMURIUM, Strain/Indicator: TA1537, Metabolic Activation: NONE) “inactive; negative”; (Test System: AMES SALMONELLA TYPHIMURIUM, Strain/Indicator: TA1537, Metabolic Activation: RAT, LIVER, S-9) “inactive; negative”; (Test System: E.COLI, Strain/Indicator: WP2 UVRA, Metabolic Activation: NONE) “inactive; negative”; (Test System: E.COLI, Strain/Indicator: WP2 UVRA, Metabolic Activation: RAT, LIVER, S-9) “inactive; negative”.

As for `CCOC(=O)N(N=O)C(CCC=O)c1cccnc1` (stereo not given), the mutagenic call (Test System: AMES SALMONELLA TYPHIMURIUM, Strain/Indicator: TA100, Metabolic Activation: NONE, Method: PREINCUBATION) is “active; positive”.

Turning to `N[C@@H](CS)C(=O)O`, the mutagenic call runs as follows: (End Point: IN VIVO MICRONUCLEUS, Test System: BONE MARROW POLYCHROMATIC ERYTHROCYTES, Species: MOUSE, Strain/Sex: DDY/MALE, Route: IP) “inactive; negative”; (Test System: AMES SALMONELLA TYPHIMURIUM, Strain/Indicator: TA92, Metabolic Activation: HOMOGENIZED V-79, Method: STANDARD PLATE) “active; positive”; (Test System: AMES SALMONELLA TYPHIMURIUM, Strain/Indicator: TA92, Metabolic Activation: NONE, Method: STANDARD PLATE) “active; positive”; (Test System: AMES SALMONELLA TYPHIMURIUM, Strain/Indicator: TA92, Metabolic Activation: RAT, KIDNEY, S-9, Method: PREINCUBATION) “active; positive”; (Test System: AMES SALMONELLA TYPHIMURIUM, Strain/Indicator: TA92, Metabolic Activation: RAT, KIDNEY, S-9, Method: STANDARD PLATE) “active; positive”; (Test System: AMES SALMONELLA TYPHIMURIUM, Strain/Indicator: TA92, Metabolic Activation: RAT, LIVER, S-9, Method: STANDARD PLATE) “active; positive”. Also, the mutagenic call (Test System: AMES SALMONELLA TYPHIMURIUM, Strain/Indicator: TA97, Metabolic Activation: RAT, KIDNEY, S-9, Method: PREINCUBATION) is “active; positive”; the mutagenic call (Test System: AMES SALMONELLA TYPHIMURIUM, Strain/Indicator: TA97, Metabolic Activation: RAT, KIDNEY, S-9, Method: STANDARD PLATE) is “active; positive”; the mutagenic call (Test System: AMES SALMONELLA TYPHIMURIUM, Strain/Indicator: TA98, Metabolic Activation: HAMSTER, LIVER, S-9, AROCLOR 1254, Method: STANDARD PLATE) was “active; positive”; the mutagenic call under setting [1] is “active; positive”; the mutagenic call (Test System: AMES SALMONELLA TYPHIMURIUM, Strain/Indicator: TA100, Metabolic Activation: HAMSTER, LIVER, S-9, AROCLOR 1254, Method: STANDARD PLATE) was “active; positive”; the mutagenic call under setting [2] is “active; positive”. Moreover, the mutagenic call is “active; positive” (Test System: AMES SALMONELLA TYPHIMURIUM, Strain/Indicator: TA100, Metabolic Activation: RAT, KIDNEY, S-9, Method: PREINCUBATION); “active; positive” (Test System: AMES SALMONELLA TYPHIMURIUM, Strain/Indicator: TA100, Metabolic Activation: RAT, KIDNEY, S-9, Method: STANDARD PLATE); “active; positive” under setting [3]; “active; positive” (Test System: AMES SALMONELLA TYPHIMURIUM, Strain/Indicator: TA100, Metabolic Activation: RAT, LIVER, S-9, Method: STANDARD PLATE); “active; positive” (Test System: AMES SALMONELLA TYPHIMURIUM, Strain/Indicator: TA102, Metabolic Activation: NONE, Method: STANDARD PLATE); “active; positive” (Test System: AMES SALMONELLA TYPHIMURIUM, Strain/Indicator: TA102, Metabolic Activation: RAT, KIDNEY, S-9, Method: PREINCUBATION). In addition, the mutagenic call was “active; positive” (Test System: AMES SALMONELLA TYPHIMURIUM, Strain/Indicator: TA104, Metabolic Activation: RAT, KIDNEY, S-9, Method: PREINCUBATION); “inactive; negative” (Test System: AMES SALMONELLA TYPHIMURIUM, Strain/Indicator: TA104, Metabolic Activation: RAT, KIDNEY, S-9, Method: STANDARD PLATE); “inactive; negative” (Test System: AMES SALMONELLA TYPHIMURIUM, Strain/Indicator: TA1535, Metabolic Activation: RAT, KIDNEY, S-9, Method: PREINCUBATION); “inactive; negative” (Test System: AMES SALMONELLA TYPHIMURIUM, Strain/Indicator: TA1537, Metabolic Activation: RAT, KIDNEY, S-9, Method: PREINCUBATION); “inactive; negative” (Test System: CHINESE HAMSTER V-79, Strain/Indicator: V-79/6-THIOGUANINE, Metabolic Activation: NONE, Method: STANDARD PLATE); “active; positive. reevaluation of results: positive” (Test System: MOUSE LYMPHOMA, Strain/Indicator: L5178Y (TK+/TK-), Metabolic Activation: NONE, Method: SUSPENSION/PLATE). Besides, the mutagenic call (Test System: MOUSE LYMPHOMA, Strain/Indicator: L5178Y (TK+/TK-), Metabolic Activation: RAT, LIVER, S-9, AROCLOR 1254, Method: SUSPENSION/PLATE) was “active; positive. reevaluation of results: positive”.

As to `COc1ccc(N(CCCl)CCCl)c2oc([N+](=O)[O-])cc12`, the mutagenic call by setting is: (Test System: AMES SALMONELLA TYPHIMURIUM, Strain/Indicator: TA100(NR), Metabolic Activation: NONE, Method: STANDARD PLATE) “active; positive”; (Test System: AMES SALMONELLA TYPHIMURIUM, Strain/Indicator: TA100(NR), Metabolic Activation: RAT, LIVER, S-9, AROCLOR 1254, Method: STANDARD PLATE) “active; positive”; under setting [2], “active; positive”; under setting [3], “active; positive”.

With `Cc1cc(N)cc([N+](=O)[O-])c1N`, the mutagenic call reads like this: under setting [1], “active; positive”; (Test System: AMES SALMONELLA TYPHIMURIUM, Strain/Indicator: TA1538, Metabolic Activation: RAT, LIVER, S-9, AROCLOR 1254, Method: STANDARD PLATE) “active; positive”.

On to `C[C@H]1C[C@@]23CCC4C[C@](C)(C(=O)O)CC[C@@]4(C)[C@@H]2CC[C@]1(O)C3` (stereo not given in full), for which the mutagenic call (Test System: AMES SALMONELLA TYPHIMURIUM, Strain/Indicator: TM677, Metabolic Activation: RAT, LIVER, S-9, AROCLOR 1254, Method: PREINCUBATION) was “inactive; negative”.

Consider `ONc1ncnc2c1ncn2Cc1ccccc1`, for which the mutagenic call is “active; positive” under setting [4]; “active; positive” (Test System: AMES SALMONELLA TYPHIMURIUM, Strain/Indicator: TA97, Metabolic Activation: RAT, LIVER, S-9, AROCLOR 1254, Method: STANDARD PLATE); “inactive; negative” under setting [5]; “active; positive” under setting [1]; “active; positive” under setting [2]; “active; positive” under setting [3].

For the molecule `O=C(O)/C(Cl)=C(\CO)C(Cl)Cl`, the mutagenic call is, setting by setting: under setting [4], “active; positive”; (Test System: AMES SALMONELLA TYPHIMURIUM, Strain/Indicator: TA97, Metabolic Activation: RAT, LIVER, S-9, PHENOBARBITAL, Method: STANDARD PLATE) “inactive; negative”; under setting [5], “inactive; negative”; (Test System: AMES SALMONELLA TYPHIMURIUM, Strain/Indicator: TA98, Metabolic Activation: RAT, LIVER, S-9, PHENOBARBITAL, Method: STANDARD PLATE) “inactive; negative”; under setting [2], “active; positive”; (Test System: AMES SALMONELLA TYPHIMURIUM, Strain/Indicator: TA100, Metabolic Activation: RAT, LIVER, S-9, PHENOBARBITAL, Method: STANDARD PLATE) “inactive; negative”.
